Each structure is given as a SMILES string.

Here are results for ten compounds from patent US20110178062A1, “INDOLE AND BENZOTHIOPHENE COMPOUNDS AS MODULATORS OF THE HISTAMINE H3 RECEPTOR” (priority 2007, published 2011).

Experiment [1] deals with T1, human H3 receptor (Homo sapiens, UniProt Q9Y5N1).
T1 construct: expressed in transfected cells; host or cells: SK-N-MC cells
Description: Cyclic AMP Accumulation, SK-N-MC reporter cells (human H3). The following applies: SK-N-MC cells expressing reporter construct and human H3 receptor; read-out: Human pA2 (converted). Format: cell-based. An excerpt:
(§1) Sublines of SK-N-MC cells were created that expressed a reporter construct and either the human or rat H3 receptor. The pA2 values were obtained as described by Barbier et al. (2004). Data for compounds tested in these assays are presented in Table 3, as an average of the results obtained (NT=not tested).

Experiment [2] has as its target T2, cloned human H3 receptors, stably expressed in SK-N-MC cells (Homo sapiens, UniProt Q9Y5N1).
T2 construct: expressed in transfected cells; host or cells: SK-N-MC cells
Description: H3 Receptor Binding (Human). The following applies: average of the results obtained. Here is the method:
Binding of compounds to the cloned human H3 receptors, stably expressed in SK-N-MC cells, was performed as described by Barbier, A. J. et al. (Br. J. Pharmacol. 2004, 143(5), 649-661). Data for compounds tested in this assay are presented in Table 1 as an average of the results obtained.

Experiment [3] addresses T3, Rat H3 (Rattus norvegicus, UniProt Q9QYN8). Description: H3 Receptor Binding (Rat), rat brain membranes, N-[3H]-α-methylhistamine. The following applies: rat brain without cerebellum; 0.8 nM N-[3H]-α-methylhistamine; average of results. Here is the method:
A rat brain without cerebellum (Zivic Laboratories Inc., Pittsburgh, Pa.) was homogenized in 50 mM Tris-HCl/5 mM EDTA and centrifuged at 1,000 rpm for 5 min. The supernatant was removed and recentrifuged at 15,000 rpm for 30 min. Pellets were rehomogenized in 50 mM Tris/5 mM EDTA (pH 7.4). Membranes were incubated with 0.8 nM N—[^3H]-α-methylhistamine plus/minus test compounds for 60 min at 25° C. and harvested by rapid filtration over GF/C glass fiber filters (pretreated with 0.3% polyethylenimine) followed by four washes with buffer. Nonspecific binding was defined in the presence of 100 μM histamine. Inhibitory concentration (responsible for 50% inhibition of maximal effect, IC50) values were determined by a single site curve-fitting program (GraphPad, San Diego, Calif.) and converted to Ki values based on a N—[^3H]-α-methylhistamine dissociation constant (Kd) of 0.8 nM. Data for compounds tested in this assay are presented in Table 2 as an average of the results obtained.
Target sequence in this assay (Q9QYN8 1-397 isoform Q9QYN8-3): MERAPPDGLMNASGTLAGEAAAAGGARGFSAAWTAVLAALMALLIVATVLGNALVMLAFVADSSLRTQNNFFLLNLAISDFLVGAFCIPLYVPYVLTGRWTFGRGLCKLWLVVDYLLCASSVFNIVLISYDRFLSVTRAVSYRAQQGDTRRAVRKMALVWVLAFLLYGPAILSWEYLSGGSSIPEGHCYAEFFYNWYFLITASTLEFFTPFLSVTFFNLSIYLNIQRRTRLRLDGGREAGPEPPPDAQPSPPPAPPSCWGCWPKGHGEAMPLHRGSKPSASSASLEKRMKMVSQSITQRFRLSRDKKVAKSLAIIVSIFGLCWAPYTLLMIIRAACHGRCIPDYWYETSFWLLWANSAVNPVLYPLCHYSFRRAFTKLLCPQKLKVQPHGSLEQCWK

Experiment [4] deals with T3, Rat H3. The experiment can be described thus: Cyclic AMP Accumulation, SK-N-MC reporter cells (rat H3). The experiment is classed as cell-based. On the set-up: expressed in transfected cells; host or cells: SK-N-MC cells (subline with reporter construct). Particulars: SK-N-MC cells expressing reporter construct and rat H3 receptor; read-out: Rat pA2 (converted).
Excerpt: as §1
Target sequence in this assay (Q9QYN8 whole entry): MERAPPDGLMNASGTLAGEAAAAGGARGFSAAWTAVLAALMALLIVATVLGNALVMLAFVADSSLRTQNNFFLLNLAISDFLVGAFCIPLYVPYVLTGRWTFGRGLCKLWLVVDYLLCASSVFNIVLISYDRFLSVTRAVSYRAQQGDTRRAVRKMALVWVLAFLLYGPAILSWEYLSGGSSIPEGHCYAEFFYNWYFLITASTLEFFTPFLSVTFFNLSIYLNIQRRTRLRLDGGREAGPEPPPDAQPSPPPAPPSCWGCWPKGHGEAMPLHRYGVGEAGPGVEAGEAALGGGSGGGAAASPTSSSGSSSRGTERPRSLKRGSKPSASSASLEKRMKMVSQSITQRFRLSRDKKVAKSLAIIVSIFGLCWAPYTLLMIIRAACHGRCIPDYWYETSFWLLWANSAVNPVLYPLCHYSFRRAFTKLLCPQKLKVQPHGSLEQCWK

T2 sequence (Q9Y5N1 whole entry): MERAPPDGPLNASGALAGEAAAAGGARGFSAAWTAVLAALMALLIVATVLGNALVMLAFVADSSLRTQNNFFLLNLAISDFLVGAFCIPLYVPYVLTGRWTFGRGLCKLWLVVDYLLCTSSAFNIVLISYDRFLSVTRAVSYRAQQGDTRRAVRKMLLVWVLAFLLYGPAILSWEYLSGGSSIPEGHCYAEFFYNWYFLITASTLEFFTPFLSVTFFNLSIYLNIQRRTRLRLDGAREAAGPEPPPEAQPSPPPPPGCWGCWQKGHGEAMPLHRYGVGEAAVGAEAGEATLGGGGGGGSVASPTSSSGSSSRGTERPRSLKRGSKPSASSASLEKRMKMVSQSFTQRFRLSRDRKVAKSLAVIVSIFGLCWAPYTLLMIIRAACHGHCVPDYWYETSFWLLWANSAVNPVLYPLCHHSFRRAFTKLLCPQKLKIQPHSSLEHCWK
T1 sequence (Q9Y5N1 whole entry): as above

For orientation: Ki means a dissociation constant, usually derived from enzyme kinetics or from competition with a known ligand. High values mean weaker binding, low ones tighter binding. As to `CC(C)N1CCN(C(=O)c2ccc3c(CN4CCOCC4)cn(C)c3c2)CC1` [Example 1, (4-Isopropyl-piperazin-1-yl)-(1-methyl-3-morpholin-4-ylmethyl-1H-indol-6-yl)-methanone], the Kb in experiment [1] was 3.72 nM. In addition, the values for the inhibition constant Ki in experiment [2] and in experiment [3] were 2 nM and 98 nM, respectively.

Take `CC(C)N1CCN(C(=O)c2ccc3c(CN4CCOCC4)c[nH]c3c2)CC1` [Example 4, (4-Isopropyl-piperazin-1-yl)-(3-morpholin-4-ylmethyl-1H-indol-6-yl)-methanone]: in experiment [1], the Kb was 0.234 nM. The values for the Ki in experiment [2] and in experiment [3] were 1 nM and 14 nM, respectively.

As for `O=C(c1ccc2c(CN3CCOCC3)c[nH]c2c1)N1CCN(C2CC2)CC1` [Example 5, (4-Cyclopropyl-piperazin-1-yl)-(3-morpholin-4-ylmethyl-1H-indol-6-yl)-methanone], in experiment [1], the Kb is 0.537 nM. Besides, the Ki in experiment [2] was found to be 1 nM; in experiment [3], 28 nM.

Regarding `CC(C)N1CCCN(C(=O)c2ccc3c(CN4CCOCC4)c[nH]c3c2)CC1` [Example 7, (4-Isopropyl-[1,4]diazepan-1-yl)-(3-morpholin-4-ylmethyl-1H-indol-6-yl)-methanone], the results for the Ki in experiment [2] and in experiment [3] were 1 nM and 2 nM, respectively. The Kb in experiment [4] is 2 nM.

Turning to `O=C(c1cccc2c(CN3CCOCC3)c[nH]c12)N1CCN(C2CCC2)CC1` [Example 21, (4-Cyclobutyl-piperazin-1-yl)-(3-morpholin-4-ylmethyl-1H-indol-7-yl)-methanone], the Kb in experiment [1] is 1.1 nM. Further, the values for the Ki in experiment [2] and in experiment [3] were 5 nM and 19 nM, respectively.

Turning to `O=C(c1ccc2c(CN3CCN(C4CCC4)CC3)c[nH]c2c1)N1CCCCC1` [Example 29, [3-(4-Cyclobutyl-piperazin-1-ylmethyl)-1H-indol-6-yl]-piperidin-1-yl-methanone], the Ki was 11 nM in experiment [2] and 438 nM in experiment [3].

As to `CC(C)N1CCCN(C(=O)c2ccc3[nH]cc(CN4CCCCC4)c3c2)CC1` [Example 34, (4-Isopropyl-[1,4]diazepan-1-yl)-(3-piperidin-1-ylmethyl-1H-indol-5-yl)-methanone], the Ki in experiment [2] stood at 4 nM; in experiment [3], 133 nM.

Compound `CC(C)N1CCN(C(=O)c2ccc3c(CN4CCCC4)c[nH]c3c2)CC1` [Example 58, (4-Isopropyl-piperazin-1-yl)-(3-pyrrolidin-1-ylmethyl-1H-indol-6-yl)-methanone] came in with a Ki in experiment [3] of 2 nM.

Regarding `O=C(c1ccc2c(CN3CCN(C4CCCC4)CC3)c[nH]c2c1)N1CCCCCC1` [Example 91, Azepan-1-yl-[3-(4-cyclopentyl-piperazin-1-ylmethyl)-1H-indol-6-yl]-methanone], the values for the Kb in experiment [1] and in experiment [4] were 46.8 nM and 67.6 nM, respectively. This compound also had an inhibition constant Ki in experiment [2] of 26 nM.

For the compound `CC(C)N1CCN(C(=O)c2ccc3scc(CN4CCCCC4)c3c2)CC1` [Example 102, (4-Isopropyl-piperazin-1-yl)-(3-piperidin-1-ylmethyl-benzo[b]thiophen-5-yl)-methanone], the Ki in experiment [2] came out at 17 nM; in experiment [3], 228 nM.
